Legend:
Format in all cases: in vivo
[1] = system: Echinochloa crus-galli var. formosensis; experiment: Test Example 2: herbicidal effect test by application during growth period of paddy rice; conditions: Echinochloa crus-galli, 7 days after sowing, 120 g per 10 ares, 14 days after application, read-out: weed inhibition rate
Method in brief: (§1)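 Flooded paddy-soil pots (about 3 cm water) sown with 30 seeds per weed species and kept in a greenhouse. Emulsifiable concentrate applied by dropper seven days after sowing at 120 g active ingredient per 10 ares, in duplicate. Herbicidal effect scored 14 days after application.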

Scirpus juncoides [2] = experiment: as above; conditions: Schoenoplectiella juncoides, 7 days after sowing, 120 g per 10 ares, 14 days after application, read-out: weed inhibition rate
Method in brief: as §1

[3] = system: Echinochloa crus-galli var. formosensis; experiment: Test Example 1: herbicidal effect test by soil application in paddy rice; conditions: Echinochloa crus-galli, 336 h, 120 g per 10 ares, 14 days after application, read-out: weed inhibition rate
Method in brief: (§2)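 Paddy soil in flooded Wagner pots (~3 cm water), weed seeds sown at 0–1 cm depth, greenhouse; emulsifiable concentrate diluted in water and applied by dropper immediately after sowing at 120 g active ingredient per 10 ares. Duplicate pots; weed inhibition rate (%) scored 14 days after application.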

Monochoria vaginalis = experiment: as above; conditions: Pontederia vaginalis, 336 h, 120 g per 10 ares, 14 days after application, read-out: weed inhibition rate
Method in brief: as §2

Scirpus juncoides [4] = experiment: as above; conditions: Schoenoplectiella juncoides, 336 h, 120 g per 10 ares, 14 days after application, read-out: weed inhibition rate
Method in brief: as §2

Measured: inhibition at 1200 g/ha

CCOC(C)O[C@H]1C[C@]2(C)O[C@@]1(C(C)C)C[C@H]2OCc1ccccc1F (stereo partly drawn) [1-213, (1R,2S,4S,5R)-2-(1-ethoxyethoxy)-5-((2-fluorobenzyl)oxy)-1-isopropyl-4-methyl-7-oxabicyclo[2.2.1]heptane]
≥ 80%: all assays above
